How the values were obtained:
[1] = biological target: p38 MAP kinase (Homo sapiens, UniProt Q16539); assay: Inhibition of p38 MAP kinase, IC50 relative to SB-203580; type: biochemical; settings: relative activity = ratio IC50 (SB-203580)/IC50 (test compound); the higher the value, the more active
[2] = tested on: TNF-α; assay: Inhibition of TNF-α release, IC50 relative to SB-203580; type: cell-based; settings: relative activity = ratio IC50 (SB-203580)/IC50 (test compound); the higher the value, the more active
Description: The action spectrum of the compounds as inhibitors of the release of TNF-α and IL-1β was investigated with the aid of the test systems as described by Donat C. and Laufer S. in Arch. Pharm. Pharm. Med. Chem. 333, Suppl. 1, 1-40, 2000. The IC50 values obtained were set in relation to the values for the compound SB-203580 of the formula
The numerical values given in the following table are therefore the relative activity, calculated from the ratio of IC50 (SB-203580)/IC50 (test compound). […] The compounds in which R1 represents H represent the prior art according to WO2006/120010.

Sequence of p38 MAP kinase (Q16539 whole entry): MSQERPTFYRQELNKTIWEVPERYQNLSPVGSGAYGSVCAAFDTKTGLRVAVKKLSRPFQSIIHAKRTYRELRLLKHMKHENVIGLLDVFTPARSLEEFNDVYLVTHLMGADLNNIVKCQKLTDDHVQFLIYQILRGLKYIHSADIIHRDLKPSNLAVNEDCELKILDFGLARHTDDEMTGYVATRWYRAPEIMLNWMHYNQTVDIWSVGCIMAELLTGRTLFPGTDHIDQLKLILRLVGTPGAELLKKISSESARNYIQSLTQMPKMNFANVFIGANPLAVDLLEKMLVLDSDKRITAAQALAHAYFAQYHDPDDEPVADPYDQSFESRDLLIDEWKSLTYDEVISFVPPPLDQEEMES

| SMILES | p38 MAP kinase [1] | melting point [°C] | Inhibition of TNF-α [2] |
| --- | --- | --- | --- |
| O=C1c2ccc(Nc3ccc(F)cc3F)cc2CCc2ccc(OC3CCOCC3)cc21 [2-(2,4-Difluoroanilino)-7-(2-tetrahydropyran-4-yl-oxy)-10,11-dihydrodibenzo[a,d]-cyclohepten-5-one] | 0.74 |  | 1.98 |
| O=C1c2ccc(Nc3ccc(F)cc3F)cc2CCc2ccc(OCCCO)cc21 [2-(2,4-Difluoroanilino)-7-(3-hydroxy-propoxy)-10,11-dihydrodibenzo[a,d]-cyclohepten-5-one] | 4.85 |  | >5 |
| O=C1c2ccc(Nc3ccc(F)cc3F)cc2CCc2ccc(O)cc21 [2-(2,4-Difluoroanilino)-7-hydroxy-10,11-dihydrodibenzo[a,d]-cyclohepten-5-one] | 2.03 |  | 1.80 |
| COc1ccc2c(c1)C(=O)c1ccc(Nc3ccc(F)cc3F)cc1CC2 [2-(2,4-Difluoroanilino)-7-methoxydibenzosuberone] | 1.59 |  | 0.70 |
| O=C1c2ccc(Nc3ccc(F)cc3F)cc2CCc2cc(OCCO)ccc21 [2-(2,4-Difluorophenylamino)-8-(2-hydroxyethoxy)-10,11-dihydrodibenzo[a,d]-cyclohepten-5-one] | 2.60 |  |  |
| O=C1c2ccc(Nc3ccc(F)cc3F)cc2CCc2cc(OCCN3CCOCC3)ccc21 [2-(2,4-Difluorophenylamino)-8-(2-morpholin-4-yl-ethoxy)-10,11-dihydrodibenzo[a,d]cyclohepten-5-one] | 2.53 |  |  |
| COc1ccc2c(c1)CCc1cc(Nc3ccc(F)cc3F)ccc1C2=O [2-(2,4-Difluorophenylamino)-8-methoxy-10,11-dihydrodibenzo[a,d]cyclo-hepten-5-one] | 2.60 |  |  |
| COc1ccc2c(c1)C(=O)c1ccc(Nc3ccc(F)cc3N)cc1CC2 [2-(2-Amino-4-fluoroanilino)-7-methoxydibenzosuberone] | 0.92 |  | 0.73 |
| Nc1ccccc1Nc1ccc2c(c1)CCc1ccc(OC[C@@H](O)CO)cc1C2=O [2-(2-Aminoanilino)-7-[2S-,3-dihydroxypropoxy]-10,11-dihydrodibenzo[a,d]-cyclohepten-5-one] | 1.54 |  | >5 |
| COc1ccc2c(c1)C(=O)c1ccc(Nc3ccccc3N)cc1CC2 [2-(2-Aminoanilino)-7-methoxydibenzosuberone] | 1.00 |  | 0.91 |
| COc1ccc2c(c1)C(=O)c1ccc(Nc3ccccc3OC)cc1CC2 [2-(2-Methoxyanilino)-7-methoxydibenzosuberone] | 0.11 |  | 0.18 |
| CC1(C)OC[C@H](COc2ccc3c(c2)C(=O)c2ccc(Nc4ccccc4N)cc2CC3)O1 [2-(Aminoanilino)-7-(S-1,2-isopropylideneglycer-3-yl)-10,11-dihydrodibenzo[a,d]-cyclohepten-5-one] | 1.31 |  | >5 |
| Nc1ccc2c(c1)COc1cc(Nc3ccc(F)cc3N)ccc1C2=O [3-(2-Amino-4-fluorophenylamino)-8-amino-6H-dibenzo[b,e]oxepin-11-one] | 1.15 | 194.5 | 0.24 |
| Nc1ccc2c(c1)COc1cc(Nc3ccccc3N)ccc1C2=O [3-(2-Aminophenylamino)-8-amino-6H-dibenzo[b,e]oxepin-11-one] | 0.93 | 203.9 |  |
| O=C1c2ccc(Nc3ccc(F)cc3F)cc2CCc2c(OCCN3CCOCC3)cccc21 [8-(2,4-Difluorophenylamino)-1-(2-morpholin-4-yl-ethoxy)-10,11-dihydrodibenzo[a,d]cyclo-hepten-5-one] | 1.26 |  |  |

Continued, in another order:

| p38 MAP kinase [1] | melting point [°C] | SMILES | Inhibition of TNF-α [2] |
| --- | --- | --- | --- |
| 2.26 |  | O=C1c2ccc(Nc3ccc(F)cc3F)cc2CCc2c(O)cccc21 [8-(2,4-Difluorophenylamino)-1-hydroxy-10,11-dihydrodibenzo[a,d]cyclohepten-5-one] | 0.06 |
| 0.14 | 68.4 | COc1ccccc1Nc1ccc2c(c1)OCc1cc(N)ccc1C2=O [8-Amino-3-(2-methoxyphenylamino)-6H-dibenzo[b,e]oxepin-11-one] | 0.04 |
| 1.76 |  | O=C1c2ccc(Nc3ccc(F)cc3F)cc2CCc2c(OC[C@H](O)CO)cccc21 [(R)-8-(2,4-Difluorophenylamino)-1-(2,3-dihydroxypropoxy)-10,11-dihydrodibenzo-[a,d]cyclohepten-5-one] |  |
|  | 184 to 193 | Nc1ccc2c(c1)COc1cc(Nc3ccc(F)cc3F)ccc1C2=O [Example 82, 3-(2,4-Difluorophenylamino)-8-amino-6H-dibenzo[b,e]oxepin-11-one] |  |
|  | 93.9 | Nc1ccc2c(c1)COc1cc(Nc3ccc(C(F)(F)F)cc3N)ccc1C2=O [Example 92, 8-Amino-3-(2-amino-4-trifluoromethylphenylamino)-6H-dibenzo[b,e]oxepin-11-one] |  |
|  | 59 | O=C1c2ccc(-n3cnnn3)cc2COc2cc(Nc3ccc(F)cc3F)ccc21 [Example 95, 3-(2,4-Difluorophenylamino)-8-tetrazol-1-yl-6H-dibenzo[b,e]oxepin-11-one] |  |
| 0.51 | 244.3 | O=C1c2ccc(NC(=O)N3CCOCC3)cc2COc2cc(Nc3ccc(F)cc3F)ccc21 [Morpholine-4-carboxylic acid [3-(2,4-difluorophenylamino)-1-oxo-6,11-dihydrodibenzo[b,e]oxepin-8-yl]amide] |  |
